Measurements published in patent publication US6294580A, “Substituted 4-hydroxy-phenylalcanoic acid derivatives with agonist activity to PPAR-gamma” (Glaxo Wellcome Inc., priority 1996, dated 2001).
Counter-ions that a name gives are not always drawn. Like-named read-outs stand apart in the source and are kept apart here.

Tests used:
PPARg = experiment: PPARgamma Transient Cotransfection Assay; type: cell-based
hPPARgamma = target: T1, hPPARgamma (Homo sapiens, UniProt P37231); experiment: hPPARgamma Ligand Binding Assay; conditions: competition with [3H]-BRL 49,653, room temperature 2 hrs
T1 construct: 10x-histidine tag (N); made in house; host or cells: E. coli
T1 sequence (P37231 195-475 isoform P37231-2): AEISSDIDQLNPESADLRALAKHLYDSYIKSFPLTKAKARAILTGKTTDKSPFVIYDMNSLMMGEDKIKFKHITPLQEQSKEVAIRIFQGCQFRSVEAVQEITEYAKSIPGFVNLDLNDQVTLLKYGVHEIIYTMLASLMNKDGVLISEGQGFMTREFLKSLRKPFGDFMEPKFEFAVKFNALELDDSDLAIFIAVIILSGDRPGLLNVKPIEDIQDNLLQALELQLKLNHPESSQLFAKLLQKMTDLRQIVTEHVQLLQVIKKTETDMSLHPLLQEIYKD
Description: 2. hPPARgamma Ligand Binding Assay: The PPAR-gamma ligand binding domain (amino acids 195-475) was expressed with an N-terminal 10×-histidinetag in E. coli cells. The cells were lysed and receptor was purified by means of the epitope tag. The stock solution of protein was diluted to 200 nM in assay buffer (50 mM Tris, 50 mM KCl, pH 8 20 mM CHAPS, 2 mM EDTA 10 mM DTT (Fresh)) just before use.
Test compounds were prepared as 6 mM stock solutions in DMSO. […] The right-most column of wells was used for controls. […] Plates were incubated at room temperature for 2 hrs, and then cooled on ice for 30 minutes. 50 uL samples from each well of a single test plate were simultaneously loaded onto an equilibrated AGTC 96 well gel filtration block (Advanced Genetics Technology Corp.) using a Zymak Rapidplate automated pipettor. The block was placed on top of a clean microtiter plate and centrifuged @1,100×g for 4 min. 200 uL of scintillation fluid was added to each well, the plates were sealed and allowed to equilibrate for at least 4 hours before counting in a Wallac 1250 Microbeta counter.
Ki's were determined from a nonlinear least squares fit of the data to a simple competitive binding model.

[1] = CAT reporter, read-out: PPARg EC50
[2] = read-out: PPARg EC50, CAT reporter

| Compound | EC50 (PPARg; [1]) | Ki (hPPARgamma; PPARg Ki) | other results |
| --- | --- | --- | --- |
| Cc1oc(-c2ccccc2)nc1CCOc1ccc(C[C@H](Nc2ccccc2C(=O)c2ccncc2)C(=O)O)cc1 [Example 56, 3-{4-[2-(5-Methyl-2-phenyl-oxazol-4-yl)-ethoxy]-phenyl}-2(S)-[2-(pyridine-4-carbonyl)-phenylamino]-propionic acid] | 1 nM | 10 nM |  |
| CN(CCOc1ccc(CC(Nc2ccccc2C(=O)c2ccsc2)C(=O)O)cc1)c1nc2ccccc2o1 (centres unmarked) [Example 75] | 100 nM | 75 nM |  |
| O=C(c1ccccc1)c1ccccc1NC(Cc1ccc(OCc2csc(-c3ccc(Cl)cc3)n2)cc1)C(=O)O (centres unmarked) [Example 30, 2-(2-Benzoyl-phenylamino)-3-{4-[2-(4-chlorophenyl)-thiazol-4ylmethoxy]-phenyl}-propionic acid] | 50 nM | 300 nM |  |
| Cc1cc(-c2ccco2)nn1CCOc1ccc(C[C@H](Nc2ccccc2C(=O)c2ccccc2)C(=O)O)cc1 [Example 63, 2S-(2-benzoyl-phenylamino)-3-{4-[2-(3-furan-2-yl-5-methyl-pyrazol-1-yl)-ethoxy]-phenyl}-propionic acid] | 20 nM | 30 nM |  |
| CC(=CC(=O)c1cccc(I)c1)N[C@@H](Cc1ccc(OCCN(C)c2nc3ccccc3o2)cc1)C(=O)O [Example 18, 3-{4-[2-(Benzoxazol-2-yl-methyl-amino)-ethoxy]-phenyl}-2(S)-[3-(3-iodo-phenyl)-1-methyl-3-oxo-propenylamino]-propionic acid dicyclohexylamine salt] | 5 nM | 10 nM |  |
| CN(CCOc1ccc(CC(Nc2c(C(=O)C3CCCCC3)cnn2C)C(=O)O)cc1)c1nc2ccccc2o1 (centres unmarked) [Example 51, 3-{4-[2-(Benzoxazol-2-yl-methyl-amino)-ethoxy]-phenyl}-2-(4-cyclohexanecarbonyl-2-methyl-2H-pyrazol-3-ylamino)-propionic acid] | 350 nM | 140 nM |  |
| Cc1cccc(C(=O)c2ccccc2NC(Cc2ccc(OCCN(C)c3nc4ccccc4o3)cc2)C(=O)O)c1 (centres unmarked) [Example 80] | 10 nM | 10 nM |  |
| O=C(c1ccccc1)c1ccccc1NC(Cc1ccc(OC[C@@H]2CCCN2c2nc3ccccc3o2)cc1)C(=O)O (some centres unmarked) [Example 23] | 1 nM | 50 nM |  |
| CN(CCOc1ccc(CC(Nc2cc(F)ccc2C(=O)C2CCCCC2)C(=O)O)cc1)c1nc2ccccc2o1 (centres unmarked) [Example 50, 3-{4-[2-(Benzoxazol-2-yl-methyl-amino)-ethoxy]-phenyl}-2-(2-cyclohexanecarbonyl-5-fluoro-phenylamino)-propionic acid] | 50 nM | 390 nM |  |
| Cc1oc(-c2ccccc2)nc1CCOc1ccc(C[C@H](Nc2ccccc2C(=O)NCCCN)C(=O)O)cc1 [Example 90, 2-(S)-(1-carboxy-2-{4-{2-(5-methyl-2-phenyl-oxazol-4-yl)-ethoxy]-phenyl}-ethylamino)-benzoic acid 3-aminopropyl amide hydrochloride] |  | 3000 nM |  |
| O=C(c1ccccc1)c1ccccc1NC(Cc1ccc(OCCn2cnc3ccccc32)cc1)C(=O)O (centres unmarked) [Example 31, 3-[4-(2-Benzoimidazol-1-yl-ethoxy)-phenyl]-2-(2-benzoyl-phenylamino)-propionic acid] | 450 nM | 145 nM |  |
| Cc1oc(-c2ccccc2)nc1CCOc1ccc(CC(Nc2ccccc2C(=O)C2CCCCC2)C(=O)O)cc1 (single isomer, unassigned) [Example 53, 2-(2-Cyclohexanecarbonyl-phenylamino)-3-{4-[2-(5-methyl-2-phenyl-oxazol-4-yl)-ethoxy]-phenyl}-propionic acid] | 25 nM | 70 nM |  |
| CN(CCOc1ccc(CC(Nc2ccc(Cl)cc2C(=O)c2ccccc2)C(=O)O)cc1)c1nc2ccccc2o1 (centres unmarked) [Example 20, 3-{4-[2-(benzoxazol-2-yl-methyl-amino)-ethoxy]-phenyl}-2-(2-benzoyl-4-chloro-phenylamino)-propionic acid] | 120 nM | 180 nM |  |
| O=C(c1ccccc1)c1ccccc1NC(Cc1ccc(OC[C@H]2CCCN2c2nc3ccccc3o2)cc1)C(=O)O (some centres unmarked) [Example 22] | 20 nM | 65 nM |  |
| COC(=O)c1ccccc1N[C@@H](Cc1ccc(OCCc2nc(-c3ccccc3)oc2C)cc1)C(=O)O [Example 88, 2-(S)-(1-carboxy-2-{4-{2-(5-methyl-2-phenyl-oxazol-4-yl)-ethoxy]-phenyl}-ethylamino)-benzoic acid methyl ester] |  |  | EC50 (PPARg; [2]): 0.5 nM |
| CC(=CC(=O)c1ccccc1)N[C@@H](Cc1ccc(OCc2ccccc2)cc1)C(=O)O [Example 1, 3-(4-Benzyloxy-phenyl)-2(S)-(1-methyl-3-oxo-3-phenyl-propenylamino)-propionic acid dicyclohexylamine salt] | 60 nM | 55 nM | PPARg Fold. Act. (PPARg; CAT reporter): 26 |
| Cc1oc(-c2ccccc2)nc1CCOc1ccc(CC(Nc2ccccc2C(=O)c2cccc(N)c2)C(=O)O)cc1 (centres unmarked) [Example 94, 2-[2-(3-amino-benzoyl)-phenylamino]-3-{4-[2-(5-methyl-2-phenyl-oxazol-4-yl)-ethoxy]-phenyl}-propionic acid] | 10 nM | 40 nM |  |

| Compound | EC50 (PPARg; [1]) | Ki (hPPARgamma; PPARg Ki) | other results |
| --- | --- | --- | --- |
| CN(CCOc1ccc(CC(Nc2ccccc2C(=O)c2ccc(C(F)(F)F)cc2)C(=O)O)cc1)c1nc2ccccc2o1 (centres unmarked) [Example 73] | 25 nM | 115 nM |  |
| 3-{4-[2-(Benzoxazol-2-yl-methylamino)-ethoxy]-phenyl}-3-(4-benzoyl-thienylamino)-propionic acid [Example 108] | 20 nM |  | Ki (hPPARgamma; read-out: PPARg Ki): 80 nM |
| Cc1sc(N2CCN(S(C)(=O)=O)CC2)nc1CCOc1ccc(C[C@H](Nc2ccccc2C(=O)c2ccccc2)C(=O)O)cc1 [Example 103, 2(S)-(2-benzoyl-phenylamino)-3-(4-{2-[5-methyl-2-(4-methylsulfonyl-piperazin-1-yl)-thiazol-4-yl]-ethoxy}-phenyl)-propionic acid] |  |  | EC50 (PPARg; [2]): 180 nM |
| COC(=O)c1ccccc1N[C@@H](Cc1ccc(OC[C@@H]2CCCN2c2ccc([N+](=O)[O-])cc2)cc1)C(=O)O [Example 47, 2-(1-Carboxy-2-{4-[1-(4-nitro)-phenyl-pyrrolidin-2-ylmethoxy]-phenyl}-ethylamino)-benzoic acid methyl ester] | 50 nM | 240 nM |  |
| O=C(c1ccccc1)c1ccsc1NC(Cc1ccc(OCc2ccccc2)cc1)C(=O)O (centres unmarked) [Example 8, 2-(3-Benzoyl-thiophen-2-yl-amino)-3-(4-benzyloxy-phenyl)-propionic acid] | 720 nM | 21 nM |  |
| Cc1oc(-c2ccccc2)nc1CCOc1ccc(CC(Nc2ccccc2C(=O)c2cccc(OCC(N)=O)c2)C(=O)O)cc1 (centres unmarked) [Example 98, 2-[2-(3-Carbanoylmethoxy-benzoyl)-phenylamino]-3-{4-[2-(5-methyl-2-phenyl-oxazol-4-yl)-ethoxy]-phenyl}-propionic acid] | 375 nM | 10 nM |  |
| COC(=O)c1ccccc1N[C@@H](Cc1ccc(OCCc2ccc(OC(F)(F)F)cc2)cc1)C(=O)O [Example 107, 2(S)-(1-carboxy-2-{4-[2-(4-trifluoromethoxy-phenyl)-ethoxy]-phenyl}-ethylamino)-benzoic acid methyl ester] | 190 nM | 40 nM |  |
| CNC(=O)c1ccccc1N[C@@H](Cc1ccc(OCCc2nc(-c3ccccc3)oc2C)cc1)C(=O)O [Example 91, 2-(S)-(1-carboxy-2-{4-{2-(5-methyl-2-phenyl-oxazol-4-yl)ethoxy]-phenyl}-ethylamino)-benzoic acid methyl amide] | 20 nM |  |  |
| COC(=O)C(Cc1ccc(OCc2ccccc2)cc1)Nc1ccccc1C(=O)Nc1ccccc1 (racemic) [Example 6, 3-(4-Benzyloxy-phenyl)-2-(phenylcarbamoyl-phenylamino)-propionic acid methyl ester] |  |  | PPARg Fold. Act. (PPARg; CAT reporter): 4 |
| COC(=O)[C@H](Cc1ccc(OCCc2nc(N3CCN(C)CC3)sc2C)cc1)Nc1ccccc1C(=O)c1ccccc1 [Example 42] | 5 nM |  |  |
| CN(CCOc1ccc(CC(Nc2ccccc2C(=O)c2ccccc2)C(=O)O)cc1)c1ccccn1 (centres unmarked) [Example 11, 2-(2-Benzoyl-phenylamino)-3-{4-[2-(methyl-pyridin-2-yl-amino)-ethoxy]-phenyl}-propionic acid] |  |  | EC50 (PPARg; [2]): 10 nM |
| Cc1oc(-c2ccccc2)nc1CCOc1ccc(CC(Nc2ccccc2C(=O)c2cccc(C(=O)O)c2)C(=O)O)cc1 (centres unmarked) [Example 84] | 55 nM |  |  |
| O=C(C1=C(N[C@@H](Cc2ccc(OCc3ccccc3)cc2)C(=O)O)CCCC1)c1ccccc1 [Example 3, 2(S)-(2-Benzoyl-cyclohex-1-enylamino)-3-(4-benzyloxy-phenyl)-propionic acid dicyclohexylamine salt] |  |  | PPARg Fold. Act. (PPARg; CAT reporter): 3 |
| CCN(CCOc1ccc(C[C@H](Nc2ccccc2C(=O)OC)C(=O)O)cc1)c1cccc(C)c1 [Example 71] | 150 nM |  |  |
| COC(=O)C(Cc1ccc(OCc2ccccc2)cc1)Nc1ccccc1C(=O)N1CCCCC1 (centres unmarked) [Example 7, 3-(4-Benzyloxy-phenyl)-2-[2-(piperidine-1-carbonyl)-phenylamino]-propionic acid methyl ester] |  |  | PPARg Fold. Act. (PPARg; CAT reporter): 5 |
| CN(CCOc1ccc(C[C@H](NC(=O)c2coc3ccccc3c2=O)C(=O)O)cc1)c1nc2ccccc2o1 [Example 28, 3-{4-[2-(Benzoxazol-2-yl-methyl-amino)-ethoxy]-phenyl}-2(S)-[(4-oxo-4H-chromene-3-carbonyl)-amino]-propionic acid] | 25 nM |  |  |
| Cc1oc(-c2ccccc2)nc1CCOc1ccc(CC(Nc2ccccc2C(=O)c2cccc(CO)c2)C(=O)O)cc1 (centres unmarked) [Example 85, 2-[2-(3-hydroxymethyl-benzoyl)-phenylamino]-3-{4-[2-(5-methyl-2-phenyl-oxazol-4-yl)-ethoxy]-phenyl}-propionic acid] | 20 nM |  |  |
